# Laboratory results taken from PMC9944328 (Nature Communications, 2023).
# Where “and” joins values, the source holds several entries; their conditions need not be identical. Equal values may be shown once. Read-outs that look alike come from different tables or passages of the source.
# How the values were obtained:
# [1] = target: SSTR2 mutants (Homo sapiens, UniProt P30874, I284A); experiment: SSTRs Gi-mediated cAMP inhibition, GloSensor, HEK293, 5 μM forskolin, 15 min room temperature (SSTR2 mutants); type: cell-based; parameters: The human full-length SSTRs and mutants were cloned into the pcDNA3.1+ vector; expressed in transfected cells; host or cells: HEK293 (ATCC, CRL-1573); Best-fit Bottom, cAMP inhibition / Best-fit Top, cAMP inhibition / Span, cAMP inhibition / Bottom (best-fit value) / Top (best-fit value) / Span (best-fit value) / Span (best-fit) / Bottom (best-fit) / Top (best-fit) / Best-fit Bottom / Best-fit Top / Best-fit Span / Top / Span: scale not given here; settings: I284A, best-fit, runs 1-3
# Chain of SSTR2 mutants (Homo sapiens, UniProt P30874, I284A) (P30874 whole entry I284A): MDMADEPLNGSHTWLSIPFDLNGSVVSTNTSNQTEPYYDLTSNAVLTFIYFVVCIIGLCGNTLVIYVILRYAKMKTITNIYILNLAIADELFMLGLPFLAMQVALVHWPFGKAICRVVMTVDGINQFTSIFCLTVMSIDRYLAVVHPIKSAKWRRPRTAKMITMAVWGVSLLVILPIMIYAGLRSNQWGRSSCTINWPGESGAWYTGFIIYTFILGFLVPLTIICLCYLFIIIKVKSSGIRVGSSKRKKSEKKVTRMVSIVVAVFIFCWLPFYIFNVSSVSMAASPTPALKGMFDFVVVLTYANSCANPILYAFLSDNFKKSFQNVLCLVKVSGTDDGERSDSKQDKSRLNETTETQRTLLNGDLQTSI
# Protocol: (§1) The levels of the intracellular 3′, 5′-cyclic AMP (cAMP) were measured by the GloSensor cAMP assay (Promega) as described in the previous studies[28],[41] which has been widely used. The human full-length SSTRs and mutants were cloned into the pcDNA3.1+ vector with a HA signal sequence followed by a Flag tag at the N-terminus. HEK293 cells (ATCC, CRL-1573) were seeded into 6-well microplates at a density of 1.0 × 10^6 cells/well and cultured for 24 h at 37 °C with 5% CO2. Cells were then co-transfected with SSTR wild-type or mutants and GloSensor plasmids. After 24 h of transfection, the cells were dissociated with TrypLE™ Express Enzyme (1X) (Thermo Fisher Scientific) and collected by centrifugation at 500 × g for 5 min. Then the collected cells were suspended in Hank’s balanced salt solution [HBSS (Thermo Fisher Scientific)] supplemented with […] (YEASEN), and then the suspension cells were seeded into 96-well plates with 90 μl/well. After incubating at room temperature for 40 min, 5 μM forskolin and ligands diluted in HBSS were added to each well and the plates were incubated at room temperature for 15 min. […] were measured using the Synergy H1 microplate reader (BioTek) and the data presented are means of at least three independent experiments.
# [2] = target: T1, SSTR2 mutants (Homo sapiens, UniProt P30874, N276A);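 also: Read-out is the BRET ratio between Nluc-fused β-arrestin 1 and the early endosome marker FYVE-mVenus, measured after ligand addition with coelenterazine h as substrate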
# T1 sequence (P30874 whole entry N276A, the tested form may be a part): as the sequence (P30874 whole entry I284A) above, with N276A, A284I counted along it
# Protocol: (§2) Wild-type or mutant SSTR2, β-arrestin 1-Nluc and FYVE-mVenus were co-transfected in HEK293 cells at a ratio of 1:0.5:4 on six-well plates. The next day, the transfected cells were plated on white 96-well and incubated overnight, and then cells were incubated with 90 µL HBSS containing 20 mM HEPES and coelenterazine h (5 µM) at room temperature for 40 min. After incubation, ligand was added and the signal was measured using the Synergy H1 microplate reader (BioTek) to determine a BRET ratio.
# [3] = tested on: SSTR3 mutants; experiment: SSTRs Gi-mediated cAMP inhibition, GloSensor, HEK293 (SSTR3 mutants); type: cell-based, human; parameters: Bottom / Top / Span / Top (best-fit): unit not given here; settings: H192(45.51)T and N101(2.64)V in SSTR3
# Protocol: as §1, with “HEK293 cells (ATCC, CRL-1573) were seeded into 6-well microplates at a density of 1.0 × 10^6 cells/well and cultured for 24 h at 37 °C with 5% CO2.” left out
# [4] = target: SSTR3 mutants (Homo sapiens, UniProt P32745, F296D); experiment: as above; type: cell-based; parameters: Bottom / Top / Span / Top (best-fit): unit not given here
# Chain of SSTR3 mutants (Homo sapiens, UniProt P32745, F296D) (P32745 whole entry F296D): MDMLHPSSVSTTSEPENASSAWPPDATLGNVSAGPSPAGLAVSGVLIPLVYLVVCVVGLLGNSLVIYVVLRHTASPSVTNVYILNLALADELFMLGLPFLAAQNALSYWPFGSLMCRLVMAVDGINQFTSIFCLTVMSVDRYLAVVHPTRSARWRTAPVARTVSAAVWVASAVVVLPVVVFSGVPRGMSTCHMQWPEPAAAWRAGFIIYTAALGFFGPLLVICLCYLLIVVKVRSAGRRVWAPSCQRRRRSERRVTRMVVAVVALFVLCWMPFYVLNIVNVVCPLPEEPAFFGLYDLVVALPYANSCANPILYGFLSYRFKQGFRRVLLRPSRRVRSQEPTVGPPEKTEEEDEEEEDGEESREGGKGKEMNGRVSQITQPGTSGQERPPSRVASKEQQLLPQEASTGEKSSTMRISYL
# Protocol: as §1, with “HEK293 cells (ATCC, CRL-1573) were seeded into 6-well microplates at a density of 1.0 × 10^6 cells/well and cultured for 24 h at 37 °C with 5% CO2.” left out
# [5] = target: T2, SSTR3 mutants (Homo sapiens, UniProt P32745, M193I); experiment: as above; type: cell-based; parameters: Bottom / Top / Span / Top (best-fit): unit not given here
# T2 construct: The human full-length SSTRs and mutants were cloned into the pcDNA3.1+ vector; expressed in transfected cells; host or cells: HEK293 (ATCC, CRL-1573)
# T2 sequence (P32745 whole entry M193I): as the sequence (P32745 whole entry F296D) above, with M193I, D296F counted along it
# Protocol: as §1, with “HEK293 cells (ATCC, CRL-1573) were seeded into 6-well microplates at a density of 1.0 × 10^6 cells/well and cultured for 24 h at 37 °C with 5% CO2.” left out
# [6] = target: SSTR3 mutants (Homo sapiens, UniProt P32745, N104V); experiment: as above; type: cell-based; parameters: Bottom / Top / Span / Top (best-fit): unit not given here; settings: for Top: best-fit
# Chain of SSTR3 mutants (Homo sapiens, UniProt P32745, N104V) (P32745 whole entry N104V): as the sequence (P32745 whole entry F296D) above, with N104V, D296F counted along it
# Protocol: as §1, with “HEK293 cells (ATCC, CRL-1573) were seeded into 6-well microplates at a density of 1.0 × 10^6 cells/well and cultured for 24 h at 37 °C with 5% CO2.” left out
# [7] = target: T1, SSTR2 mutants; experiment: cell-based
# Protocol: as §2
smiles,measurement,setting,value
N#Cc1cccc(-c2ccc3ncc(-c4cc(F)cc(F)c4)c(N4CCC(N)CC4)c3c2)c1O [paltusotine],Span,[1],112.7 and 91.59 and 139.6
same,Top,[1],112.9 and 105.5 and 122.9
same,Emax,[2],81 ± 1.71%
same,Receptor activation of mutants,[3],increased paltusotine-induced SSTR3 activation
same,EC50,[4],309 ± 6.3 nM
same,Emax,[4]; HEK293,65.5 ± 6.4%
same,Fold of WT,"[4]; Suppl. Table 4, SSTR3 F296(7.35)D",4.84
same,Bottom,"[4]; best-fit, SSTR3 F296D-1",5.089
same,LogEC50,"[4]; best-fit, SSTR3 F296D-1",-6.01
same,Span,"[4]; best-fit, SSTR3 F296D-1",99.77
same,Top,"[4]; best-fit, SSTR3 F296D-1",104.9
same,EC50,"[4]; best-fit, SSTR3 F296D-1, read-out: EC50",978 nM
same,Bottom,"[4]; best-fit, SSTR3 F296D-2",18.98
same,LogEC50,"[4]; best-fit, SSTR3 F296D-2",-6.627
same,Span,"[4]; best-fit, SSTR3 F296D-2",120
same,Top,"[4]; best-fit, SSTR3 F296D-2",139
same,EC50,"[4]; best-fit, SSTR3 F296D-2, read-out: EC50",236 nM
same,Bottom,"[4]; best-fit, SSTR3 F296D-3",12.18
same,LogEC50,"[4]; best-fit, SSTR3 F296D-3",-6.94
same,Span,"[4]; best-fit, SSTR3 F296D-3",133.1
same,Top,"[4]; best-fit, SSTR3 F296D-3",145.3
same,EC50,"[4]; best-fit, SSTR3 F296D-3, read-out: EC50",115 nM
same,Emax,"[5]; HEK293, Suppl. Table 4, SSTR3 M193(45.52)I, n=3",38.8 ± 17.4%
same,Fold of WT,"[5]; Suppl. Table 4, SSTR3 M193(45.52)I",2.89
same,EC50,"[5]; Suppl. Table 4, SSTR3 M193(45.52)I, n=3",184 ± 6.02 nM
same,Bottom,"[5]; best-fit, SSTR3 M193I-1",-5.898
same,EC50,"[5]; best-fit, SSTR3 M193I-1",590 nM
same,LogEC50,"[5]; best-fit, SSTR3 M193I-1",-6.229
same,Span,"[5]; best-fit, SSTR3 M193I-1",76.32
same,Top,"[5]; best-fit, SSTR3 M193I-1",70.42
same,Bottom,"[5]; best-fit, SSTR3 M193I-2",0.4332
same,LogEC50,"[5]; best-fit, SSTR3 M193I-2",~ -3.924
same,Span,"[5]; best-fit, SSTR3 M193I-2",~ 6676
same,Top,"[5]; best-fit, SSTR3 M193I-2",~ 6677
same,Bottom,"[5]; best-fit, SSTR3 M193I-3",0.4332
same,LogEC50,"[5]; best-fit, SSTR3 M193I-3",~ -3.924
same,Span,"[5]; best-fit, SSTR3 M193I-3",~ 6676
same,Top,"[5]; best-fit, SSTR3 M193I-3",~ 6677
same,EC50,[6],97.8 nM
same,Top,[6]; SSTR3 N101V-1,184
same,Top,[6]; SSTR3 N101V-2,142.6
same,Top,[6]; SSTR3 N101V-3,142.6
same,EC50,[7],145.2 ± 1.11 nM
